Results published in patent US20240240189A1, “CANCER TREATMENT BY TARGETING PROTEINS OR INTERACTIONS OF EPHRINB-RGS3-KIF20A-SEPT7 AXIS” (CITY OF HOPE, priority 2021, published 2024).
“Also recorded” adds a separate entry of the source.

Tests used:
[1] = test system: Daoy cells; experiment: Intracranial Daoy tumor transplantation in NSG mice, bioluminescence imaging and survival; type: in vivo, mouse; conditions: Daoy Clone #2 in cerebellum of NSG mice
Description: Expression of the two factors was highly correlated. […] Tumor growths were monitored by bioluminescence imaging. Doxycycline treatment started at four weeks after initial cell implantation (indicated with a red font and line). The treatment group of mice was first given doxycycline by gavage for two consecutive days and was then fed with doxycycline-containing food for the entire duration of the experiment.
Intracranial tumor transplantation and Bioluminescence imaging: NSG mice (8-10 weeks old) were anesthetized with isoflurane and oxygen and placed under microscope. […] The transplanted mice were then monitored weekly with luciferase-based bioluminescence imaging for tumor growth. […] Tumor growths in two mice groups were monitored weekly by bioluminescence imaging. Survivals of mice after cell transplantation were recorded and analyzed.
To examine the function of KIF20A in tumor formation by Daoy cells, 10^5 Clone #2 cells were injected into the cerebellum of each recipient NSG mouse using a method previously described^22. Growth of tumor cells was then monitored by bioluminescence imaging. […] The mice were then kept on doxycycline-containing food continuously and were monitored for tumor growth by bioluminescence imaging.

[2] = test system: GISC017 cells; experiment: Cell growth of GISC017 cells; type: cell-based, human; conditions: vs scrambled shRNA
Description: To further investigate the relevance of KIF20A in human brain tumors, inhibition of KIF20A in patient-derived GBM-initiating/stem cells (GISCs) was examined. As the ERKS axis functions in different types of brain tumor-initiating/stem cells, data obtained from study of GISCs would be applicable to other brain tumor cell types. Multiple lines of patient-derived GISCs were obtained from Dr. Christine Brown. These low passaged GISCs could be expanded in cultures and could engraft in NSG mice^43, 44. FIG. 11 summarizes the results of testing KIF20A in one GISC line (GISC017) by constitutive expression of a control scrambled shRNA or shKIF20A726 (shRNA targeting hKIF20A) in pNUT vector-based lentiviral expression system. […] In the above cell cycle exit analysis, co-staining of differentiation markers (e.g. βlll-tubulin, DCX, or NeuN) was performed, however, these markers were detected in EdU^+Ki67^− (cells having left the cell cycle) but also in some EdU^+Ki67^+ (cells staying in the cell cycle) cells, which might reflect a technical artefact observed with progenitor/stem cells in culture. […]

[3] = test system: GISC017 cells; experiment: GISC017 xenograft in brains of NSG mice; type: in vivo; conditions: GISC017 clones with Tet-inducible shKIF20A726 in NSG mouse brain, doxycycline treatment
Procedure: FIG. 12a: NSG mice were injected with GISC017 cells stably integrated with Tet-inducible shRNA and luciferase. Treatment with doxycycline started at 10 days after cell implantation (indicated by the red line). FIG. 12b: Survival data of the mice were analyzed by Kaplan-Meier plot.
GISC017 cell clones stably integrated with a Tet-inducible shKIF20A726 and luciferase expression cassette were established.

5′-GAGGAGTGTCTACATCGAA-TTCAAGAGA-TTCGATGTAGACACTCCTC-3′ (GAGGAGTGTCTACATCGAATTCAAGAGATTCGATGTAGACACTCCTC; hairpin, further chemistry not given here) [shKIF20A726, shRNA targeting human KIF20A transcript]
brain tumor growth (bioluminescence imaging) ([1]; doxycycline from four weeks after implantation vs untreated): significantly slower growth of brain tumors; also recorded: inhibited tumor growth
survival (Kaplan-Meier) ([1]; doxycycline treatment vs untreated): better overall survival
cell growth rate [2]: slower cell growth rate; also recorded: inhibited cell growth
animal survival [3]: prolong animal survival
tumor xenograft growth [3]: suppress tumor xenograft growth
